The subject of data set [1] is skeletal muscle cells. Description: Toxicity in vitro on primary cultures of skeletal muscle cells. It is filed as cell-based, human. To be noted: 30 μM, at least 30 days of treatment. As for the experimental part: Of human origin, they were obtained from ScienCell, USA (ref. 3500) as was the culture medium (ref. 3501), which contains 10% (v/v) FCS. The doubling time for these cells is 72 h.
(§1) The same methods are used for both cases. For the activity, the anti-GBM potential of the test compounds is used, and the toxicity, is tested on normal cells of human origin maintained “in vitro”.
(§2) The cells used are liver cells (ScienCell, USA, ref. 50200), kidney cells (ScienCell, USA, ref. 4120), skeletal muscle cells (ScienCell, USA, ref. 3500) and cardiac cells (ScienCell, USA, ref. 6300), of human origin, mentioned above (section II, A).

Data set [2] concerns human glioblastoma lines (GBM, line U-87 MG). Description: Anti-GBM activity in vitro on cultures of human U87-MG cells, cell aggregates (CA). The class given is cell-based. How it is done:
Plastic flat-bottomed 96-well culture plates (NUNC, USA) treated for cell culture (Sigma-Aldrich, ref. 114754) are used; 1500 cells are seeded per well in 200 μl of culture medium. At the time of treatment, 100 μl of pure culture medium, 100 μl of culture medium containing ethanol, or liposomes, or 100 μl of culture medium containing the active ingredients are added per well; the final volume of the culture medium, after treatment, is therefore 300 μl for all the wells.
The human glioblastoma lines (GBM, line U-87 MG) and their culture medium (Eagle's Minimum Essential Medium or EMEM) were obtained from ATCC (USA, ref. ATCC-HTB-14). Culture of the cells is started and maintained according to the recommendations of the ATCC. These lines are commonly used “in vitro” and “in vivo” for testing anti-GBM potential. The doubling time of these lines is 16 h.
The active ingredients are either dissolved in absolute ethanol (AnalaR, NORMAPUR, VWR, France) or in the form of a liposomal solution, such as 10 μl of the stock solutions diluted in 990 μl and then added to the culture wells ([…] medium per well BI-GBM: 300 μl).
When the active ingredients are in ethanolic solution, the culture medium contains […] ethanol (v/v).
Briefly, the compounds to be tested, namely the compounds according to the invention (active ingredients) or 7β-OHCH—C3-ester (a derivative of 7beta-hydroxysterol esterified in position 3 with an oleate group, the synthesis of which is described by Rakotoarivelo et al. (18) and used as control), soya phosphatidylcholine (Sigma) as well as cholesteryl-3-sulphate (Sigma) are taken from their stock solutions prepared from dichloroethane in the case of the active ingredients and the 7β-OHCH—C3-ester, a chloroform:methanol mixture (9:1, v/v) in the case of phosphatidylcholine and chloroform in the case of cholesteryl-3-sulphate. The molar ratios are 1 M/0.1 M/0.25 M for phosphatidylcholine, cholesteryl-3-sulphate and the 7β-OHCH—C3-ester and the active ingredients respectively.
After evaporation, a solution of PBS saline, without Ca^2+ and Mg^2+, pH7.2 (BioRad) is added to the dry compound. The volume of buffer and the mass of the products are adjusted so that 20 or 10 μl of liposomes added to 90 μl of culture medium gives the desired final concentrations. The liposomes are formed by the extrusion technique with Liposofast (Sodexim, SA Muizon, France). The solution is passed through polycarbonate filtration membranes (100 nm) 41 times. The liposomes are sterilized by filtration on […] Millipore membranes.
For example, in the case of the cultures in 96-well plates and as a function of the magnification of the microscope used (objectives×10 or ×20, oculars×10), a photograph taken represents a field of view with a diameter equal to 1/5 of the diameter of a well. Therefore the total number of cells in a well is equal to […] the number of cells per photograph. This technique was compared with a standard technique (trypsinization of the cell layer, centrifugation of the cells, suspension of the cells in physiological saline solution and counting with a THOMA cell) in the case of the C6 cells. The results obtained are identical for both methods.
The culture medium is withdrawn from each well and 50 μl of Laemmli buffer (0.1 ml of Tris, 0.8 ml of glycerol, 1.6 mL of 10% SDS, 8 ml q.s.f ultrapure water) is added per well.
This test makes it possible to detect the cellular respiration, especially the mitochondrial respiration. The stock solution of tetrazolium salt MTT (3-(4,5-dimethylthiazol-2-yl)-2,5-diphenyl tetrazolium bromide, Sigma-Aldrich, USA, ref. M5655) is prepared with 10 mg of MIT/ml of PBS buffer (phosphate-buffered saline, SIGMA, ref. D 1408). This solution is added directly to the culture medium in each well; the final concentration of MTT is 25 μg/ml. The plate is then incubated at 37° C. for at least 1 h. […]

Data set [3] relates to normal (non-cancerous) human astrocytes. Description: Toxicity in vitro on primary cultures of normal human astrocytes. The class given is cell-based. To be noted: 30 μM, after 30 days of treatment. As for the experimental part:
The astrocyte cells of human origin used were obtained from ScienCell, USA (ref. 1800) as well as their culture medium, made up of basic medium containing 2% (v/v) FCS serum (ref. 0010), astrocyte growth proteins (AGS, ref. 1852) and a solution of penicillin/streptomycin (ref. 0503). The doubling time of these human astrocytes is 96 h. • Hepatic cells
as §1
The cells used are cells of human origin (ScienCell, USA, ref. 1800), mentioned above (section II, A).
The astrocyte type is validated by the presence of GFAP, the standard marker of normal astrocytes (FIG. 11; magnification×200).

The test system of data set [4] is cardiac cells. Description: Toxicity in vitro on primary cultures of cardiac cells. It is filed as cell-based, human. To be noted: 30 μM, at least 30 days of treatment. How it is done: These cells, of human origin, were obtained from ScienCell, USA (ref. 6300) as was the culture medium, which contains 10% (v/v) FCS. The doubling time is 72 h. • Skeletal muscle cells
as §1, §2

Data set [5] relates to kidney cells. As to the kind of experiment: Toxicity in vitro on primary cultures of kidney cells. It is filed as cell-based, human. As to conditions: 30 μM, at least 30 days of treatment. How it is done:
These cells, of human origin, were obtained from ScienCell, USA (ref. 4120) as was the culture medium (ref. 4101), which contains 10% (v/v) FCS. The doubling time is 96 h. • Cardiac cells
as §1, §2

In data set [6] the test system is liver cells. Description: Toxicity in vitro on primary cultures of liver cells. To be noted: 30 μM, at least 30 days of treatment. The class given is cell-based, human. As for the experimental part:
Of human origin, they were obtained from ScienCell, USA (ref. 50200) as was the culture medium (ref. 5201), which contains 10% (v/v) FCS. The doubling time of these cells is 24 h. • Renal cells
as §1, §2

On to `CC(C)CCCC(C)C1CCC2C3C(OC(=O)OC(C)(C)C)C=C4CC(OC(=O)C5COC(C)(C)O5)CCC4(C)C3CCC12C` (stereo not drawn) [Molecule 2.a, 7-((tert-butoxycarbonyl)oxy)-10,13-dimethyl-17-(6-methylheptan-2-yl)-2,3,4,7,8,9,10,11,12,13,14,15,16,17-tetradecahydro-1H-cyclopenta[a]phenanthren-3-yl 2,2-dimethyl-1,3-dioxolane-4-carboxylate], for which the toxicity result in data set [1] (liposomal form), in data set [3] (liposomal form), in data set [4] (liposomal form), in data set [5] (liposomal form) and in data set [6] (liposomal form) was “not toxic” each time. Besides, the “presence of GBM cells (CA)” value in data set [2] (15 μM, liposomal form, 15 days of treatment) is on record as “zero”. Further, the “cellular respiration before cell death” value in data set [2] (liposomal form) was “cellular respiration increases before cell death”. For the same compound, the “MTT/cell relative to the controls” value in data set [2] (liposomal form, 8 days of treatment) was 140%. For the same compound, the “cell multiplication after replacing the medium with fresh drug-free medium” value in data set [2] (liposomal form, medium replaced on the 13th day of treatment) is recorded as “no cell multiplication is observed”.
Consider `CC(=O)OC1C=C2CC(OC(=O)C3COC(C)(C)O3)CCC2(C)C2CCC3(C)C(C(C)CCCC(C)C)CCC3C12` (stereo not drawn) [Molecule 2.b, 7-acetoxy-10,13-dimethyl-17-(6-methylheptan-2-yl)-2,3,4,7,8,9,10,11,12,13,14,15,16,17-tetradecahydro-1H-cyclopenta[a]phenanthren-3-yl 2,2-dimethyl-1,3-dioxolane-4-carboxylate], for which the toxicity entry in data set [1] (ethanolic form), in data set [3] (ethanolic form), in data set [4] (ethanolic form), in data set [5] (ethanolic form) and in data set [6] (ethanolic form) was “not toxic” in each case. Further, the “remaining GBM cells” value in data set [2] (30 μM, ethanolic form, even after removing the active ingredient) is “no GBM cell remains”. Further, the “cellular respiration before cell death” value in data set [2] (ethanolic form) is “cellular respiration increases before cell death”. Further, the “reduction of the level of proteins relative to the untreated control cells” value in data set [2] (ethanolic form) came to 100%. In addition, in data set [2] (medium replaced at 22 days), the “cellular multiplication after replacement of the culture medium with fresh drug-free medium” value is on record as “does not lead to any cellular multiplication”.

These data come from US10800806B2, “Sterol derivatives and use thereof for treating diseases involving transformed astrocyte cells or for treating malignant haemopathies” (BETA INNOV, priority 2012, dated 2020).
